One series has as its system protozoa. On the set-up: method as in ref 28, 29 = [28]; PMID 15541744; doi:10.1016/j.phytochem.2004.10.004; 28. Machocho AK Bastida J Codina C Viladomat F Brun R Chabra SC Augustamine type alkaloids from Crinum kirkii Phytochemistry. 2004 65 3143 3149 15541744 10.1016/j.phytochem.2004.10.004 || [29]; 29. Osorio EJ Berkov S Brun R Codina C Viladomat F Cabezas F In vitro antiprotozoal activity of alkaloids from Phaedranassa dubia (Amaryllidaceae) Phytochem Lett. 2010 3 161 163. To be noted: cited from earlier work.

Series [1] deals with trypomastigotes from the T. cruzi strain Tulahuen C4. On the set-up: method as in ref 28 = [28]; PMID 15541744; doi:10.1016/j.phytochem.2004.10.004; 28. Machocho AK Bastida J Codina C Viladomat F Brun R Chabra SC Augustamine type alkaloids from Crinum kirkii Phytochemistry. 2004 65 3143 3149 15541744 10.1016/j.phytochem.2004.10.004. To be noted: cited from earlier work.
Series [2] concerns T. cruzi intracellular amastigote forms. Briefly: Anti-amastigote specific activity assay (Vero host cells). It counts as cell-based. The conditions noted are these: Trypanosoma cruzi, 96 h, read-out: anti-amastigote activity (IC50).
In a further series the test system is Vero cells. Briefly: Vero cell toxicity assay (Alamar Blue). The conditions noted are these: 4 days, mean (SD in text).
The subject of series [3] is HepG2 cells. The series is described as follows: HepG2 cell toxicity assay (Alamar Blue). To be noted: 2 days, mean (SD in text).
The subject of series [4] is T. cruzi. On the set-up: method as in earlier work. The conditions noted are these: cited from earlier work.
Series [5] has as its system HepG2 cells. More on the design: method as in PMID 7701000. To be noted: cited from earlier work.
Series [6] relates to avian influenza virus H5N1. The conditions noted are these: read-out: IC50 against avian influenza virus H5N1; cited from earlier work.
For series [7], the system named is T. cruzi. On the set-up: method as in PMID 9810280, PMID 11301878, PMID 22673940. The conditions noted are these: L6 cells as host; cited from earlier work.
Series [8] concerns ZIKA virus. More on the design: method as in PMID 28736217. To be noted: cited from earlier work.
Series [9] deals with ZIKA virus. On the set-up: method as in PMID 28736217. To be noted: human forebrain organoids; cited from earlier work.
The subject of series [10] is ZIKA virus. More on the design: method as in PMID 28736217. The conditions noted are these: cited from earlier work. This is another data set of the same source.

Molecules are shown by their SMILES. Values after ≈ are worked out from the molar mass of the structure shown. Values joined by “and” are separate entries in the source; they are usually repeats but may differ in a detail not shown here. Identical values can stand only once. Counter-ions that a name gives are not always drawn. Like-named read-outs stand apart in the source and are kept apart here.

Turning to `CC(=O)O[C@@H]1CC=C2CCN3Cc4cc5c(cc4[C@H]1[C@@H]23)OCO5` [1-O-acetylcaranine], in the series on protozoa, the “antiprotozoal activity described before” value is listed as “poor antiprotozoal agents”.

Usually IC50 stands for the concentration that gives 50% inhibition. `CC(=O)O[C@H]1C=C[C@@]23CCN(C)Cc4ccc(O)c(c42)O[C@H]3C1` [3-O-acetylsanguinine]: the IC50 against trypomastigotes in [1] is 2.3 µg/mL (≈ 7.29 µM). Besides, in series [1] (converted from μg/ml, read-out: IC50 against trypomastigotes), the IC50 was 7.29 µM.

`O=C(Cn1ccnc1[N+](=O)[O-])NCc1ccccc1` [BNZ, benznidazole, reference compound]: the IC50 in [2] (intracellular amastigotes in Vero cells, mean (SD)) is 1.2 µM. In addition, the “TC50, Vero cell toxicity assay” value in the series with Vero cells was 173.4 (43.57) µM and 173.4 µM. In addition, in the series on HepG2 cells [3], the “TC50, HepG2 cell toxicity assay” value was determined as 168.76 µM.

In the case of `COC1C=CC23c4cc5c(cc4CN(CC2O)C3C1)OCO5` (centres unmarked) [Haemanthamine, haemanthamine], the “IC50 against T. cruzi” value in the series on T. cruzi [4] is 1.8 µg/mL (≈ 5.97 µM). Moreover, the IC50 with T. cruzi [4] (converted from µg/ml, read-out: IC50 against T. cruzi) was 5.97 µM. Also, the entries for the “TC50 for HepG2 cells” value in the series on HepG2 cells [5] and in the series on HepG2 cells [5] (converted from µg/ml) were 13 µg/mL and 43.14 µM, respectively. For the same molecule, the “TC50, Vero cell toxicity assay” value in the series with Vero cells is 11.52 µM. Besides, in the series with HepG2 cells [3], the “TC50, HepG2 cell toxicity assay” value was 42.48 (6.96) µM and 42.48 µM.

Take `CN1CCC2=C[C@H](O)[C@H]3OC(=O)c4cc5c(cc4[C@H]3[C@@H]21)OCO5` [Hippeastrine, hippeastrine]: the IC50 in [2] (Vero) is 3.31 µM; in series [6] it was 47.5 µM. The “TC50 for HepG2 cells” value in the series on HepG2 cells [5] is 40 µg/mL; with HepG2 cells [5] (converted from µg/ml), 126.85 µM. The “TC50, Vero cell toxicity assay” value in the series with Vero cells is given as 45.99 µM; in the series with Vero cells (listed as hippeastrine), 45.99 (6.32) µM. Besides, the entries for the “TC50, HepG2 cell toxicity assay” value in the series on HepG2 cells [3] and in the series on HepG2 cells [3] (listed as hippeastrine) were 128.10 µM and 128.1 (12.26) µM, respectively.

With `O[C@H]1[C@H]2c3cc4c(cc3CN3CCC(=C[C@@H]1O)[C@H]23)OCO4` [Lycorine, lycorine], the “activity against T. cruzi in previous studies” value in the series with T. cruzi [7] was “inactive”. The “TC50, Vero cell toxicity assay” value was 5.21 µM with Vero cells and 5.21 (0.80) µM in the series with Vero cells (listed as lycorine). Moreover, the “TC50, HepG2 cell toxicity assay” value in the series on HepG2 cells [3] is on record as 21.87 µM; in the series with HepG2 cells [3] (listed as lycorine) it was 21.87 (4.16) µM.

Turning to `CO[C@H]1C=C2[C@H]3C[N@@](Cc4cc5c(cc43)OCO5)[C@H]2C[C@@H]1O` [Montanine, montanine], the “TC50, Vero cell toxicity assay” value in the series on Vero cells was determined as 5.04 µM. Also, the “TC50, HepG2 cell toxicity assay” value is given as 46.10 µM with HepG2 cells [3] and 46.1 (11.99) µM in the series on HepG2 cells [3] (listed as montanine).

Turning to `O=C1N[C@@H]2C(=C[C@H](O)[C@@H](O)[C@H]2O)c2cc3c(c(O)c21)OCO3` [Narciclasine, narciclasine], the “TC50, Vero cell toxicity assay” value is on record as 0.66 µM in the series on Vero cells and 0.66 (0.082) µM in the series with Vero cells (listed as narciclasine). Further, the figures for the “TC50, HepG2 cell toxicity assay” value in the series on HepG2 cells [3] and in the series with HepG2 cells [3] (listed as narciclasine) were 2.73 µM and 2.73 (0.67) µM, respectively.

Regarding `CN1CC[C@@]23C=C[C@H](O)C[C@@H]2Oc2c(O)ccc(c23)C1` [Sanguinine, sanguinine], the “antiprotozoal activity described before” value in the series on protozoa is “poor antiprotozoal agents”.

Take `CO[C@@H]1C=C[C@@]23c4cc5c(cc4CO[C@]2(O)CN(C)[C@H]3C1)OCO5` [Tazettine, tazettine]: in the series on protozoa, the “antiprotozoal activity described before” value is “poor antiprotozoal agents”.

Consider `C[C@H]1O[C@@H](O[C@H]2[C@@H](O)C[C@H](O[C@H]3[C@@H](O)C[C@H](O[C@H]4CC[C@@]5(C)[C@H](CC[C@@H]6[C@@H]5CC[C@]5(C)[C@@H](C7=CC(=O)OC7)CC[C@]65O)C4)O[C@@H]3C)O[C@@H]2C)C[C@H](O)[C@@H]1O` [digitoxin, reference compound], for which, in the series on HepG2 cells [3], the “TC50, HepG2 cell toxicity assay” value is given as 0.29 (0.14) µM.

For the molecule `CN1CCC2=C[C@H](O)[C@H]3OC(=O)c4cc5c(cc4[C@H]3[C@@H]21)OCO5` [hippeastrine hydrobromide], the “effect on ZIKA virus in infected human neural progenitors” value in the series with ZIKA virus [8] is reported as “remove ZIKA virus from infected human neural progenitors”. Besides, the “effect on ZIKV-induced microcephaly phenotype” value with ZIKA virus [9] is recorded as “recover a ZIKV-induced microcephaly phenotype in human forebrain organoids”. In the series with ZIKA virus [10], the “effect on virus propagation in infected adult mice” value was “suppress virus propagation in infected adult mice”.

The values above are taken from paper PMC7288428, “Amaryllidaceae alkaloids with anti-Trypanosoma cruzi activity” (Parasites & Vectors, 2020).
